In paper PMC5840727, “Cysteine peptidases of Eudiplozoon nipponicum: a broad repertoire of structurally assorted cathepsins L in contrast to the scarcity of cathepsins B in an invasive species of haematophagous monogenean of common carp” (Parasites & Vectors, 2018):
Where a SMILES comes first, the peptide text is derived from it. Where no end group is shown, it is not given here. The star is where a group is joined. AMC = Cc1cc(=O)oc2cc(N*)ccc12; Cbz = O=C(OCc1ccccc1)*

Columns and labels:
Type in all cases: biochemical
[1] = biological target: T1, yrEnCL3 (EnCL3, E. nipponicum cathepsin L3) (Eudiplozoon nipponicum, UniProt A0A0K1L960); assay: fluorogenic AMC release; conditions: 50 uM substrate, 2 mM DTT, citrate/phosphate buffer, pH optimum 6, 28 °C
T1 construct: Pichia pastoris X-33 (pPICZalpha B), His-tag; full transcript 368 residues

[2] = biological target: T2, yrEnCL1 (EnCL1, E. nipponicum cathepsin L1) (Eudiplozoon nipponicum, UniProt A0A0K1L8K1); assay: fluorogenic AMC release; conditions: 50 uM substrate, 2 mM DTT, citrate/phosphate buffer, pH optimum 5.5, 28 °C; partially purified enzyme
T2 construct: Expressed as pro-enzyme in Pichia pastoris X-33 (pPICZalpha B), His-tag, self-processed in medium to ~28 kDa partially processed form, partially purified; full transcript 317 residues

[3] = biological target: T1, yrEnCL3 (EnCL3, E. nipponicum cathepsin L3); assay: fluorogenic peptidase inhibition assay (AMC release); conditions: read-out: % remaining activity at 10 uM
[4] = biological target: T2, yrEnCL1 (EnCL1, E. nipponicum cathepsin L1); assay: as above; conditions: read-out: % remaining activity at 10 uM
[5] = biological target: T3, yrEnCB (EnCB, E. nipponicum cathepsin B) (Eudiplozoon nipponicum, UniProt A0A2P1FSY4); assay: fluorogenic AMC release; conditions: 50 uM substrate, 2 mM DTT, citrate/phosphate buffer, pH optimum 5, 28 °C
T3 construct: Pichia pastoris X-33 (pPICZalpha B), His-tag; self-processed, deglycosylated with endoglycosidase F1, ~29 kDa; full transcript 382 residues
T3 sequence (A0A2P1FSY4 entry or part of it): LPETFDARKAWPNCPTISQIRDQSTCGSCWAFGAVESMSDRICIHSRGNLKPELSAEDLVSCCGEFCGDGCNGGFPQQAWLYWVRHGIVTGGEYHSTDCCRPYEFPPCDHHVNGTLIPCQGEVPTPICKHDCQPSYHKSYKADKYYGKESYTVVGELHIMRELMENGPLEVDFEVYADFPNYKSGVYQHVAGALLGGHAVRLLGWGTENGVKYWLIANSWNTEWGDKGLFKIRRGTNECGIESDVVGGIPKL

T2 sequence (A0A0K1L8K1 entry or part of it): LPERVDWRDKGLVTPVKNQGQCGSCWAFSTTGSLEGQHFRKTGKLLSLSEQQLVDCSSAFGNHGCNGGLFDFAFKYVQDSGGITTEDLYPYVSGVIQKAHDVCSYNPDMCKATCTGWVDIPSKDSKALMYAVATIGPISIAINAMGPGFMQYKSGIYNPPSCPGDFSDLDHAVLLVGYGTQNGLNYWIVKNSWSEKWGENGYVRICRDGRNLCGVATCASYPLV
T1 sequence (A0A0K1L960 entry or part of it): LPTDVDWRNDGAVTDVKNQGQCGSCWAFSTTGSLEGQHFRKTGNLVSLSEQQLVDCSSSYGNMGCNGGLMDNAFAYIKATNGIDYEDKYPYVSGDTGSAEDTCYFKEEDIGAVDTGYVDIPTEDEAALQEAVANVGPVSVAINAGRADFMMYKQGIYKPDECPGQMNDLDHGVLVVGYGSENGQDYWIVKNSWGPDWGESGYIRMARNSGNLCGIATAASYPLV

Compound | fluorogenic AMC release [1] | fluorogenic AMC release [2] | remaining activity at 10 µM [3] [%] | remaining activity at 10 µM [4] [%] | fluorogenic AMC release [5]
Cc1cc(=O)oc2cc(NC(=O)[C@H](CCCNC(=N)N)NC(=O)[C@H](CC(C)C)NC(=O)OCc3ccccc3)ccc12 [Z-Leu-Arg-AMC] | Both EnCLs efficiently hydrolysed the FR substrate, and to a lesser extent the LR | Both EnCLs efficiently hydrolysed the FR substrate, and to a lesser extent the LR |  |  | 
RKLLW-NH2 [iCL] |  |  | ~40 |  | 
CCCNC(=O)[C@H]1O[C@@H]1C(=O)N[C@H](C(=O)N1CCC[C@H]1C(=O)O)[C@@H](C)CC [CA-074, N-[L-3-trans-propylcarbamoyloxirane-2-carbonyl]-Ile-Pro-OH] |  |  | 45 to 65 | ~70 | 
Cc1cc(=O)oc2cc(NC(=O)[C@H](CCCNC(=N)N)NC(=O)[C@H](Cc3ccccc3)NC(=O)OCc3ccccc3)ccc12 [Z-Phe-Arg-AMC] (Cbz-Phe-Arg-{AMC}) | Both EnCLs efficiently hydrolysed the FR substrate, and to a lesser extent the LR | Both EnCLs efficiently hydrolysed the FR substrate, and to a lesser extent the LR |  |  | The preferred substrate for yrEnCB was the FR, while RR was cleaved less efficiently
